Experimental data taken from patent publication US7078022B2, “Sunscreen compositions and methods of use thereof” (Avon Products, Inc., priority 2002, dated 2006).
Where a name gives a salt, the structure may show the parent alone.

Experiments:
[1] = UV spectrum (UV absorbance, FIG. 1); format: physicochemical
Excerpt: FIG. 1 is a Ultraviolet (UV) spectrum showing the UV absorbance of 3-[2-(4-diethylaminophenyl)-2-oxoethyl]thiazolium salt.
FIG. 1 provides the UV spectrum for 3-[2-(4-diethylaminophenyl)-2-oxoethyl]thiazolium salt. […] The maximum UV absorption occurs at a wavelength of 350 nm.

skin = experiment: Skin elasticity and wrinkling; conditions: no method or data given

CCN(CC)c1ccc(C(=O)C[n+]2ccsc2)cc1 [3-[2-(4-diethylaminophenyl)-2-oxoethyl]thiazolium salt]
wavelength of maximum UV absorption [1]: 350 nm | UV absorbing properties ([1]; UV-A range): excellent UV absorber, particularly in the UV-A range | elasticity of skin (skin): improve the elasticity | wrinkling of skin (skin): reduce the wrinkling of skin
